Measurements reported in US10653688B2, “6-(6-membered heteroaryl and aryl)isoquinolin-3-yl carboxamides and preparation and use thereof” (Samumed, LLC, priority 2017, dated 2020).
Read-outs that look alike come from different tables or passages of the source.

Experiments:
[1] = system: Wnt activity (SW480 colon carcinoma cells stably expressing the Sp5-Luc reporter gene); test: Wnt activity screening assay (Sp5-Luc reporter gene assay); format: cell-based, human; conditions: Homo sapiens; for EC50: 36 to 48 hours; for inhibition at 10 µM: read-out: percent inhibition at 10 μM (given for EC50 >10 μM), 10 μM
Excerpt: The screening assay for Wnt activity is described as follows. Reporter cell lines can be generated by stably transducing cancer cell lines (e.g., colon cancer) or primary cells (e.g., IEC-6 intestinal cells) with a lentiviral construct that includes a Wnt-responsive promoter driving expression of the firefly luciferase gene.
SW480 colon carcinoma cells were transduced with a lentiviral vector expressing luciferase with a human Sp5 promoter consisting of a sequence of eight TCF/LEF binding sites. SW480 cells stably expressing the Sp5-Luc reporter gene and a hygromycin resistance gene were selected by treatment with 150 μg/mL of hygromycin for 7 days. These stably transduced SW480 cells were expanded in cell culture and used for all further screening activities. […] For Sp5-Luc reporter gene assays, the cells were plated at 4,000 cells/well in 384-well plates with a DMEM medium containing 1% fetal bovine serum, and 1% Penicillin-Streptomycin and incubated for 36 to 48 hours at 37° C. and 5% CO2. Following incubation, 15 μl of BriteLite Plus luminescence reagent (Perkin Elmer) was added to each well of the 384-well assay plates. The plates were placed on an orbital shaker for 2 min and then luminescence was quantified using the Envision (Perkin Elmer) plate reader. Readings were normalized to DMSO only treated cells, and normalized activities were utilized for EC50 calculations using the dose-response log (inhibitor) vs. response-variable slope (four parameters) nonlinear regression feature available in GraphPad Prism 5.0 (or Dotmatics).

recombinant GSK3β kinase = recombinant GSK3β kinase (Homo sapiens (Human), UniProt P49841); test: GSK3β kinase assay (Ser/Thr 09 peptide Z-lyte, FRET); format: biochemical;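 note: FRET read-out as coumarin over fluorescein emission ratio, compounds incubated one hour at room temperature, IC50 from dose-response curve fit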
[2] = system: SW480 colon carcinoma cells; test: Cell viability assay (CellTiter-Glo); format: cell-based, human; conditions: Homo sapiens; for EC50: 96 h, four days, CellTiter-Glo; for inhibition at 10 µM: read-out: percent inhibition at 10 μM (given for EC50 >10 μM), 10 μM
Experimental: SW480 colon carcinoma cells were transduced with a lentiviral vector expressing luciferase with a human Sp5 promoter consisting of a sequence of eight TCF/LEF binding sites. SW480 cells stably expressing the Sp5-Luc reporter gene and a hygromycin resistance gene were selected by treatment with 150 μg/mL of hygromycin for 7 days. These stably transduced SW480 cells were expanded in cell culture and used for all further screening activities.
For the Cell Viability Assays, the cells were plated at 2,000 cells/well in 384-well plates with a DMEM medium containing 1% fetal bovine serum, and 1% Penicillin-Streptomycin and incubated for […] at 37° C. and 5% CO2. Eight replicates of DMSO-treated cells served as controls and cells treated with compound were performed in duplicate.
After incubation, 10 μL of CellTiter-Glo (Promega) was added to each well allowed to incubate for approximately 12 minutes. This reagent “results in cell lysis and generation of a luminescent signal proportional to the amount of ATP present. The amount of ATP is directly proportional to the number of cells present in culture, in agreement with previous reports. The CellTiter-Glo Assay generates a “glow-type” luminescent signal, produced by the luciferase reaction (Promega.com)”.

[3] = system: LL29 cells (primary human fibroblasts derived from IPF patients), α-smooth muscle actin; test: Inhibition of fibrotic process: TGF-β1-treated primary human fibroblasts, αSMA staining; format: cell-based; conditions: Homo sapiens, Fibroblast; for EC50: 96 h, TGF-β1 20 ng/mL, 4 days, % cells positive for αSMA; for inhibition at 10 µM: read-out: percent inhibition at 10 μM (given for EC50 >10 μM), TGF-β1, αSMA, 10 μM;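 for all read-outs here: controls were TGF-β1-stimulated wells with DMSO vehicle as the positive reference and cells given DMSO alone as the negative reference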
Experimental: Representative compounds were screened using primary human fibroblasts (derived from IPF patients) treated with TGF-β1 to determine their ability to inhibit the fibrotic process.
Human Fibroblast Cell Culture:
Each compound was dissolved in DMSO as a 10 mM stock and used to prepare compound source plates. […] LL29 cells were plated at 1,500 cells/well in 70 μL/well F12 medium supplemented with 1% Fetal Bovine Serum. […] Wells treated with TGF-β1 and containing DMSO were used as positive control, and cells with only DMSO were negative control. Cells were incubated at 37° C. and 5% CO2 for 4 days. Following incubation for 4 days, SYTOX green nucleic acid stain (Life Technologies [Thermo Fisher Scientific]) was added to the wells at a final concentration of 1 μM and incubated at room temperature for 30 min. Cells were then fixed using 4% formaldehyde (Electron Microscopy Sciences), washed 3 times with PBS followed by blocking and permeabilization using 3% Bovine Serum Albumin (BSA; Sigma) and 0.3% Triton X-100 (Sigma) in PBS.

[4] = system: IL-6 in human peripheral blood mononuclear cells (huPBMCs); test: IL-6 inhibition in LPS-stimulated human peripheral blood mononuclear cells (HTRF); format: cell-based; conditions: Homo sapiens, PBMC; for EC50: LPS 50 ng/mL, 22 hours, IL-6 HTRF; for inhibition at 10 µM: read-out: percent inhibition at 10 μM (given for EC50 >10 μM), LPS, IL-6, 10 μM
Experimental: Human Peripheral Blood Mononuclear Cells:
Fresh Normal PB MNC (Catalog # PB001, AllCells, Alameda, Calif.) were shipped overnight at 4° C. and resuspended in Roswell Park Memorial Institute (RPMI) 1640 Medium, with GlutaMAX Supplement (Catalog #61870127, ThermoFisher Scientific, Waltham, Mass.) supplemented with 1% Penicillin-Streptomycin (Catalog #15140163, ThermoFisher Scientific, Waltham, Mass.) and 1% fetal bovine serum (FBS) (Catalog #16140089, ThermoFisher Scientific, Waltham, Mass.) assay media.
Fresh normal human peripheral blood mononuclear cells (huPBMCs) were resuspended in 1% FBS-RPMI assay media with 1% Penicillin-Streptomycin 1% to a cell concentration of 1×10e6 cells/mL. […] 50 ng/mL of Lipopolysaccharides from Escherichia coli 0111:B4 (Catalog # L5293-2ML, Sigma-Aldrich, St. Louis, Mo.) was added after 2 hours and cells were incubated for another 22 hours at 37° C.-5% CO2. After 22 hour incubation, a mixture of anti-IL6 XL665 and anti-IL-6 Cryptate diluted in reconstitution buffer (Catalog #62IL6PEC, Cisbio Inc., Bedford, Mass.) was added to each well. Following incubation for 3 hours at room temperature, Homogeneous Time-Resolved Fluorescence (HTRF) was measured using the Envision (Perkin Elmer, Shelton, Conn.) at 665 nm and […]. The ratio of fluorescence at 665 nm to 620 nm was used as a readout for IL-6 quantification. All samples were processed in duplicate. Readings were normalized to DMSO treated cells and normalized activities were utilized for EC50 calculations. EC50 was determined using software generated by Dotmatics Limited (Windhill Bishops Stortford Herts, UK) using the Levenberg-Marquardt 4 parameter fitting procedure with finite different gradients.

[5] = target: recombinant DYRK1A kinase (Homo sapiens (Human), UniProt Q13627); test: DYRK1A kinase assay (Ser/Thr 18 peptide Z-lyte, FRET)
[6] = GSK3β kinase, head says EC50, method says IC50, ATP 46 μM
[7] = DYRK1A kinase, head says EC50, method says IC50, ATP 30 μM

recombinant GSK3β kinase, sequence (P49841 whole entry): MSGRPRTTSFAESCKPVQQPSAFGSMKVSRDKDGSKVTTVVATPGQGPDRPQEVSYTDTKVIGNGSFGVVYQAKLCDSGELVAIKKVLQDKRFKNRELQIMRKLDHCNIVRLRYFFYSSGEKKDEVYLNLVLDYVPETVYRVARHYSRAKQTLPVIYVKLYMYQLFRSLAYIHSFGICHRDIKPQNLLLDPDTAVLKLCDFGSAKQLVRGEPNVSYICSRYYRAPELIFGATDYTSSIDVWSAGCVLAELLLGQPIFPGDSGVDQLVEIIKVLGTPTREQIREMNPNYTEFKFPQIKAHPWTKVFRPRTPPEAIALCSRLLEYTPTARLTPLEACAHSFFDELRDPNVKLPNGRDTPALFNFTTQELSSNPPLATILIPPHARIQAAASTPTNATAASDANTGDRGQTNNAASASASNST

Structure (SMILES)	EC50 [1]	EC50 (recombinant GSK3β kinase)	EC50 [2]	EC50 [4]	EC50 [5]	EC50 (recombinant GSK3β kinase; [6])	EC50 [5, 7]	EC50 [3]	inhibition at 10 µM [4]	inhibition at 10 µM [2]	inhibition at 10 µM [3]	inhibition at 10 µM [1]
CN1CCN(c2cc(C(=O)Nc3cc4cc(-c5ccc(N)nc5)ccc4cn3)ccn2)CC1 [Compound 39, N-(6-(6-Aminopyridin-3-yl)isoquinolin-3-yl)-2-(4-methylpiperazin-1-yl) isonicotinamide]	710 nM	> 10000 nM	2720 nM	3390 nM	12 nM			2480 nM				
CC(C)Nc1cncc(-c2ccc3cnc(NC(=O)c4cccc(C5CCN(C)CC5)c4)cc3c2)c1 [Compound 42, N-(6-(5-(Isopropylamino)pyridin-3-yl)isoquinolin-3-yl)-3-(1-methylpiperidin-4-yl)benzamide]	403 nM		491 nM	1100 nM		> 10000 nM	3 nM	631 nM				
CC(C)Nc1cncc(-c2ccc3cnc(NC(=O)c4ccnc(N5CCN(C)CC5)c4)cc3c2)c1 [Compound 43, N-(6-(5-(Isopropylamino)pyridin-3-yl)isoquinolin-3-yl)-2-(4-methylpiperazin-1-yl)isonicotinamide]	275 nM		467 nM	2060 nM		> 10000 nM	2 nM	217 nM				
O=C(Nc1cc2cc(-c3cncc(NC4CCNCC4)c3)ccc2cn1)c1ccc(F)cc1 [Compound 45, 4-fluoro-N-(6-(5-(piperidin-4-ylamino)pyridin-3-yl)isoquinolin-3-yl) benzamide]	698 nM	> 10000 nM	865 nM	1130 nM	9 nM			622 nM				
CN1CCN(c2cc(C(=O)Nc3cc4cc(-c5ccc(N(C)C)nc5)ccc4cn3)ccn2)CC1 [Compound 49, N-(6-(6-(Dimethylamino)pyridin-3-yl)isoquinolin-3-yl)-2-(4-methylpiperazin-1-yl)isonicotinamide]	> 10000 nM		> 10000 nM	> 10000 nM		> 10000 nM	904 nM	> 10000 nM	0%	37.1%	33.5%	
O=C(CN1CCCC1)Nc1cc2cc(-c3ccnnc3)ccc2cn1 [Compound 68, N-(6-(Pyridazin-4-yl)isoquinolin-3-yl)-2-(pyrrolidin-1-yl)acetamide]	4210 nM		7910 nM	8760 nM		2590 nM	328 nM	3380 nM				
CN1CCC(F)(C(=O)Nc2cc3cc(-c4cnccn4)ccc3cn2)CC1 [Compound 76, 4-Fluoro-1-methyl-N-(6-(pyrazin-2-yl)isoquinolin-3-yl)piperidine-4-carboxamide]	> 10000 nM		> 10000 nM	> 10000 nM		> 10000 nM	258 nM	> 10000 nM	1.6%	17.5%	13.1%	15.7%

More lines, main results first:

EC50 [1]	EC50 (recombinant GSK3β kinase)	EC50 [2]	EC50 [4]	EC50 [5]	EC50 (recombinant GSK3β kinase; [6])	EC50 [5, 7]	Structure (SMILES)	EC50 [3]	inhibition at 10 µM [4]	inhibition at 10 µM [2]	inhibition at 10 µM [3]	inhibition at 10 µM [1]
4120 nM	> 10000 nM	3370 nM	> 10000 nM	64 nM			CNc1ccc(-c2ccc3cnc(NC(=O)c4ccnc(N5CCN(C)CC5)c4)cc3c2)cn1 [Compound 40, N-(6-(6-(Methylamino)pyridin-3-yl)isoquinolin-3-yl)-2-(4-methylpiperazin-1-yl)isonicotinamide]	1470 nM	3.7%			
573 nM		636 nM	1110 nM		> 10000 nM	4 nM	CC(C)Nc1cncc(-c2ccc3cnc(NC(=O)c4cccc(C5CCNCC5)c4)cc3c2)c1 [Compound 41, N-(6-(5-(Isopropylamino)pyridin-3-yl)isoquinolin-3-yl)-3-(piperidin-4-yl) benzamide]	571 nM				
4410 nM		4250 nM	1380 nM		7090 nM	3 nM	CN1CCC(Nc2cncc(-c3ccc4cnc(NC(=O)c5ccc(F)cc5)cc4c3)c2)CC1 [Compound 46, 4-Fluoro-N-(6-(5-((1-methylpiperidin-4-yl)amino)pyridin-3-yl)isoquinolin-3-yl)benzamide]	682 nM				
2320 nM	> 10000 nM	6560 nM	9680 nM	40 nM			CN1CCN(c2cc(C(=O)Nc3cc4cc(-c5cncc(N(C)C)c5)ccc4cn3)ccn2)CC1 [Compound 48, N-(6-(5-(Dimethylamino)pyridin-3-yl)isoquinolin-3-yl)-2-(4-methylpiperazin-1-yl)isonicotinamide]	4880 nM				
> 10000 nM		6920 nM	> 10000 nM		> 10000 nM	12 nM	O=C(Nc1cc2cc(-c3cncc(CN4CCCC4)c3)ccc2cn1)c1ccc(F)cc1 [Compound 52, 4-Fluoro-N-(6-(5-(pyrrolidin-1-ylmethyl)pyridin-3-yl)isoquinolin-3-yl) benzamide]	> 10000 nM	17.6%		37.1%	17.7%
382 nM	> 10000 nM	647 nM	> 10000 nM	3 nM			O=C(Nc1cc2cc(-c3cncc(CN4CCC(O)CC4)c3)ccc2cn1)c1ccc(F)cc1 [Compound 54, 4-Fluoro-N-(6-(5-((4-hydroxypiperidin-1-yl)methyl)pyridin-3-yl)isoquinolin-3-yl)benzamide]	> 10000 nM	17.9%		11.2%	
866 nM		2320 nM	> 10000 nM		> 10000 nM	6 nM	CNC(=O)c1cncc(-c2ccc3cnc(NC(=O)c4ccnc(N5CCN(C)CC5)c4)cc3c2)c1 [Compound 59, N-methyl-5-(3-(2-(4-methylpiperazin-1-yl)isonicotinamido)isoquinolin-6-yl)nicotinamide]	705 nM	4.7%			
> 10000 nM		8020 nM	> 10000 nM		> 10000 nM	158 nM	Cc1ncc(-c2ccc3cnc(NC(=O)c4ccnc(N5CCN(C)CC5)c4)cc3c2)cn1 [Compound 64, 2-(4-Methylpiperazin-1-yl)-N-(6-(2-methylpyrimidin-5-yl)isoquinolin-3-yl)isonicotinamide]	2000 nM	5.7%			28.7%
